Experimental data taken from paper PMC3633919, “Identification and Characterization of Pheromone Receptors and Interplay between Receptors and Pheromone Binding Proteins in the Diamondback Moth, Plutella xyllostella” (PLoS ONE, 2013).

Experiments:
PxylOR1/PxylOrco = molecular target: T1, PxylOR1/PxylOrco (Plutella xylostella, UniProt N0A395); test: two-electrode voltage clamp, Xenopus oocytes; type: cell-based
T1 construct: full-length untagged ORF 1269 bp (422 residues); pSP64T cRNA co-injected with PxylOrco cRNA in Xenopus laevis oocytes; with Odorant receptor coreceptor
T1 sequence (N0A395 1-422): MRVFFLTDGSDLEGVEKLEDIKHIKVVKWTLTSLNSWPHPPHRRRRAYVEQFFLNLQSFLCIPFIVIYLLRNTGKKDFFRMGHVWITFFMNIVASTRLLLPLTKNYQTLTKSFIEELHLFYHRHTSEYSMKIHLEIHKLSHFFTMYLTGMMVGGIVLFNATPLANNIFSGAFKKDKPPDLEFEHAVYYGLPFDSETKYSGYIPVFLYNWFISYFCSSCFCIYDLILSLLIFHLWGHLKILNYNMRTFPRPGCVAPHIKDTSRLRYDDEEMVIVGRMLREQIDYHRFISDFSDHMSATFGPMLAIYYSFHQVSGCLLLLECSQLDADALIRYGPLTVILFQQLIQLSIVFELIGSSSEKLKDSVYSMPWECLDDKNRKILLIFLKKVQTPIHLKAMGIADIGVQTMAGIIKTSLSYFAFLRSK
T1 sequence (D0EZE1 1-471 partner): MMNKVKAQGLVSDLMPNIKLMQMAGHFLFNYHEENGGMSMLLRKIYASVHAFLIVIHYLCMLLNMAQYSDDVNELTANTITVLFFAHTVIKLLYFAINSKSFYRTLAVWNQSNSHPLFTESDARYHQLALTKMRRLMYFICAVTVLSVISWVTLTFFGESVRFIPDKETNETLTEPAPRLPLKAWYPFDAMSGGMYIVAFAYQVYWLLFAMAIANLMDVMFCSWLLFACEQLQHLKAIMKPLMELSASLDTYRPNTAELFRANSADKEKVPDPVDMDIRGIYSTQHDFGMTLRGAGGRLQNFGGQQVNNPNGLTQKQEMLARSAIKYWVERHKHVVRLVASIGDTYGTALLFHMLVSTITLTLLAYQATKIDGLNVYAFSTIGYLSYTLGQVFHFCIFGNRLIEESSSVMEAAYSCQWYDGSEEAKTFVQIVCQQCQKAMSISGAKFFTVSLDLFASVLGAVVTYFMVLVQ

PxylOR4/PxylOrco = molecular target: T2, PxylOR4/PxylOrco (Plutella xylostella, UniProt M9ZZM3); test: two-electrode voltage clamp, Xenopus oocytes; type: cell-based
T2 construct: full-length untagged ORF 1209 bp (402 residues); pSP64T cRNA co-injected with PxylOrco cRNA in Xenopus laevis oocytes; with Odorant receptor coreceptor
T2 sequence (M9ZZM3 1-402): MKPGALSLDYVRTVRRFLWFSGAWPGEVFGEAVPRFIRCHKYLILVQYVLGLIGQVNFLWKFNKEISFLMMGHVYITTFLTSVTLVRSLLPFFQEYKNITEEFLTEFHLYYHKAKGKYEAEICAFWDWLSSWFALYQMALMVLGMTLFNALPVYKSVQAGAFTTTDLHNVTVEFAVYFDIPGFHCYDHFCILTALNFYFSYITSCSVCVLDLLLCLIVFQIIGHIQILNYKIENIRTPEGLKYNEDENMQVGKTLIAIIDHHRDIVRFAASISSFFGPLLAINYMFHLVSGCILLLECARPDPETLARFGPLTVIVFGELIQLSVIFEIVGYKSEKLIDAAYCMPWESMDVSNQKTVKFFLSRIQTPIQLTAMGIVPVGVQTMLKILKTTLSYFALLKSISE
T2 sequence (D0EZE1 1-471 partner): T1 sequence (D0EZE1 1-471 partner)

| EC50 (PxylOR1/PxylOrco) | EC50 (PxylOR4/PxylOrco) | Structure (SMILES) |
| --- | --- | --- |
| 23.9 µM | – | CCCC/C=C\CCCCCCCCCC=O [Z11-16:Ald, (Z)-11-hexadecenal] |
| – | 1.94 µM | C/C=C/C/C=C\CCCCCCCCOC(C)=O [Z9,E12-14:Ac] |
| – | 0.243 µM | CCCC/C=C\CCCCCCCCOC(C)=O [Z9-14:Ac, (Z)-9-tetradecenyl acetate] |
